The values below come from paper PMC10812467, “Peroxidasin Inhibition by Phloroglucinol and Other Peroxidase Inhibitors” (Antioxidants, 2023).

pIC50: −log10 of the molar value.

By pIC50 is commonly meant the negative decadic logarithm of the IC50, by convention in mol/L. As a reminder, the inhibition is the share of the control response that was lost under treatment.

For test [1], the system named is collagen IV NCD sulfilimine cross-link formation in isolated ECM from PFHR9 cells. As to the kind of experiment: Inhibition of collagen IV cross-linking in decellularized extracellular matrix. The test is classed as biochemical. The conditions noted are these: 100 μM bromide, 100 μM hydrogen peroxide, 1 h 37 °C, Western blot densitometry, read-out: IC50 DECM. The protocol: (§1) PFHR9 cells (ATCC) were grown in Dulbecco’s Modified Eagle Medium (Gibco), supplemented with 10% heat-inactivated foetal bovine serum (Moregate) and 1% Penicillin Streptomycin (Gibco). As described previously, cells were seeded in 150 mm cell culture dishes and ECM was isolated. The concentration of the isolated ECM protein was measured (Direct Detect) and the yield was typically ~5 mg per dish. […] After 10 min, 100 μM bromide was added and the cross-link formation was started by adding 100 μM hydrogen peroxide. After 1 h at 37 °C, the reaction was stopped, by adding 1 mM sodium azide, and ECM was digested with 2 mg mL^−1 of collagenase type I (Worthington) for 48 h at 37 °C. The digest was spun (20 kg, RT, 20 min) and the extent of cross-linking of the NCD of collagen IV was determined by the resolution of the supernatant protein on a 12% sodium dodecyl-sulfate polyacrylamide gel electrophoresis (SDS-PAGE). […] Densitometric analyses of both dimer bands (Alliance Uvitec Cambridge imager) were used to determine the extent of inhibition of the cross-link formation. […] Once full confluence was reached, the medium was changed daily, and inhibitors were added at the indicated concentrations in 1 mL of medium for 7 days.

Test [2] concerns collagen IV NCD sulfilimine cross-link formation of PFHR9 cells. As to the kind of experiment: Inhibition of collagen IV cross-linking in cell culture. The test is classed as cell-based. The following applies: PFHR9 cells grown with inhibitor for 7 days, Western blot densitometry, n.a. = 50% inhibition not reached. The protocol:
as §1

The target of test [3] is T1, Human peroxidasin (PXDN) (Homo sapiens, UniProt Q92626).
T1 construct: the four immunoglobulin domains and the peroxidase domain (amino acid residue 246-1314); made in house; host or cells: transient transfection
T1 sequence (Q92626 246-1314): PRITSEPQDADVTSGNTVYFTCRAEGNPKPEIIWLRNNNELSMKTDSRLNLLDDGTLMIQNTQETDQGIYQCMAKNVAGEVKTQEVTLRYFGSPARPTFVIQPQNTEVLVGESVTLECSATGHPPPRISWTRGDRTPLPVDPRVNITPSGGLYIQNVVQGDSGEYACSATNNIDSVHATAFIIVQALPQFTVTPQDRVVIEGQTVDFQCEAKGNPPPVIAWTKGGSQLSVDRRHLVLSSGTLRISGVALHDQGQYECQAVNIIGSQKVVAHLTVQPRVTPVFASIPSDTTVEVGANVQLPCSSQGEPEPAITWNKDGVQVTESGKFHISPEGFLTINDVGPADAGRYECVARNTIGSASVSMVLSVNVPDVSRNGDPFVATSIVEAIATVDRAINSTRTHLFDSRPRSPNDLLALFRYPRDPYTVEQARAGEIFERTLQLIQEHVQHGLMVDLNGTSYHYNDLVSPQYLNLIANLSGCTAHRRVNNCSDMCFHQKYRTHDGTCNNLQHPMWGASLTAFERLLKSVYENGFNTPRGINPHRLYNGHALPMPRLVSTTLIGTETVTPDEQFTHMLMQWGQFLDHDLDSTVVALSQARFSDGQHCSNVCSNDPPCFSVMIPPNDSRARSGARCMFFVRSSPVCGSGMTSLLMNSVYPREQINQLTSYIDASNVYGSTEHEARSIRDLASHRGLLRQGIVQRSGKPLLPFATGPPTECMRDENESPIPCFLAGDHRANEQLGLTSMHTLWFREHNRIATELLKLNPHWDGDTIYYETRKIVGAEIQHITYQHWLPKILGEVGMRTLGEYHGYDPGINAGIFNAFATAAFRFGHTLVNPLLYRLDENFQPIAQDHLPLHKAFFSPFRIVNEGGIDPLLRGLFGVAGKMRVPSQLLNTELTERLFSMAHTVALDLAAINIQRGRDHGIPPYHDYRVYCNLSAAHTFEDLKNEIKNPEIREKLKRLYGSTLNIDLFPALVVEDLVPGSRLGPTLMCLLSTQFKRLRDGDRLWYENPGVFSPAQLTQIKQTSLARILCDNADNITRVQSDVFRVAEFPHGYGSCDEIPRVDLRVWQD
In words: Amplex oxidation activity assay in the absence of bromide. Type of test: biochemical. Here is the method: (§2) A previously characterized truncated peroxidasin variant, formerly annotated as hsPxd01-con4 [46], consisting of the four immunoglobulin domains and the peroxidase domain (amino acid residue 246-1314; numbering refers to full length PXDN including the signal peptide as shown in Uniprot Q92626), was used for all experiments using PXDN protein. Cloning, transient transfection, expression and the quality control of the purified recombinant PXDN was performed routinely, as described previously. Molar concentrations are per heme and were determined using an extinction coefficient of 147,500 M^−1 cm^−1 for the heme Soret peak at 412 nm. For the conversion to mg, a molar mass of 140,000 g mol^−1 was used and calculated from the molar concentration per heme. For simplicity we will refer to this variant as peroxidasin (PXDN) throughout the manuscript.
(§3) 100 µL of 50 μM Amplex™ UltraRed and 20 μM hydrogen peroxide in 50 mM phosphate buffer pH 7.4 and the respective inhibitor at twice of its final concentration was added to a 96-well plate. […] The plate was incubated in the dark for 15 min at 37 °C before the fluorescence of resorufin, the resulting Amplex oxidation product, was detected using a SpectraMax iD3 fluorescent plate reader from Molecular Devices LLC, San Jose, CA 95134 (λex 544 nm, λem 590 nm, end point measurement). The same assay was also performed with 50 mM bromide present. To determine IC50 values, Amplex oxidation (measured as the end point as described above) was plotted versus the concentration of the inhibitor and expressed as % inhibition.

The target of test [4] is T1, Human peroxidasin (PXDN). As to the kind of experiment: Amplex oxidation activity assay in the presence of bromide. Type of test: biochemical. Here is the method:
as §2, §3

The target of another test is T2, PXDN Compound I (Homo sapiens, UniProt Q92626).
T2 construct: the four immunoglobulin domains and the peroxidase domain (amino acid residue 246-1314); made in house; host or cells: transient transfection
T2 sequence (Q92626 246-1314): T1 sequence (Q92626 246-1314)
In words: Sequential stopped-flow spectroscopy of PXDN Compound I with inhibitors. Type of test: biochemical. The following applies: 1 μM PXDN Compound I, pH 7.4, 25 °C. Here is the method:
Pre-steady-state spectra were recorded with the stopped-flow apparatus SX.18MV (Applied Photophysics Ltd, Leatherhead, UK) connected to a diode array detector (DAD), with the first spectrum recorded 14 ms after the mixing of the reactants. Due to the inherent instability of Compound I of PXDN, the sequential mixing mode was used to generate Compound I. Equal volumes of 4 μM PXDN and 4 μM hydrogen peroxide were mixed in the aging loop. […] Interconversion of redox intermediates of PXDN was monitored for 60 s. […] All reactions were performed in 100 mM phosphate buffer, pH 7.4, and at 25 °C. Time traces (410 nm to monitor Compound I and ferric PXDN, 432 nm for Compound II and 550 and 590 nm to monitor Compound III [46]) were extracted from the time-resolved spectra.

Test [5] concerns the target T1, Human peroxidasin (PXDN). In words: Reversibility of inactivation of immobilized PXDN (wash, then Amplex assay). Type of test: biochemical. The conditions noted are these: 10 min, washed four times. Here is the method: 200 ng of PXDN in 50 μL PBS was added per well of a Corning high-binding ELISA microplate for 2 h at room temperature. After four PBS washes, the respective inhibitors were added at a final concentration of 20 μM in phosphate buffer pH 7.4, before 10 μM of hydrogen peroxide was added in a final volume of 50 μL. In a control experiment, no hydrogen peroxide was added. After 10 min of incubation, the plates were washed four times with PBS and activity was measured as previously described, by adding 50 μL/well of 50 μM Amplex™ UltraRed Reagent, 20 μM hydrogen peroxide and 50 mM bromide in 50 mM phosphate buffer pH 7.4. The plate was incubated for 30 min in the dark at 37 °C before fluorescence was measured (λex 544 nm, λem 590 nm) and expressed as % activity of the untreated control.

Test [6] relates to collagen IV cross-link formation by PXDN. Further details: method as in PMID 22842973. The conditions noted are these: cited from earlier work.
Test [7] deals with T1, Human peroxidasin (PXDN). As to the kind of experiment: Dansylglycine halogenation (bromination) activity assay. The test is classed as biochemical. The following applies: 50 nM PXDN, 100 mM bromide. Here is the method: as §2
Dansylglycine (DG) was made up fresh every day and kept in the dark at room temperature. […] We mixed 50 nM PXDN in 100 mM phosphate buffer pH 7.4 with 50 μM DG and 100 mM bromide, before the reaction was started by adding 200 μM of hydrogen peroxide to a final volume of 1.5 mL. Loss of fluorescence was monitored for 60 s using a F-7000 Hitachi (Methrom-Inula, Vienna) fluorometer (λex 340 nm, λem 550 nm). […] The loss of fluorescence was fitted linearly to determine the rate of reaction (min^−1). The effect of the inhibitors was expressed as % inhibition, relative to the rate of the halogenation activity of PXDN without an inhibitor. IC50 values were determined by varying inhibitor concentrations (0–48 μM).

Turning to `O=C(O)CNc1ccc(Cl)cc1` [Cl-PAAA, (2-[(4-chlorophenyl)amino]-acetic acid)], the pIC50 in test [1] was 5.43. For the same compound, the “IC50 Cells” value in test [2] was “toxic”.

Compound `NCCc1ccc(O)c(O)c1` [Dopamine] showed a pIC50 against Human peroxidasin (PXDN) [3] of 8.00. On Human peroxidasin (PXDN) [4] (20 μM inhibitor, 50 mM bromide), the inhibition at 20 µM fell in the range of 25 to 70%. For the same compound, the “Mechanism or Reaction Steady and Pre-Steady State Spectrophotometry” value on PXDN Compound I is “Good substrate for CI and CII”.

In the case of `NNC(=O)CNc1ccccc1F` [F-PAAH, 2-[(2-fluorophenyl)amino]-acetohydrazide], the negative-log IC50 (pIC50) against Human peroxidasin (PXDN) [3] was 5.62; on Human peroxidasin (PXDN) [4] it was 6.05; in test [1] it was 3.81. The inhibition at 20 µM at Human peroxidasin (PXDN) [4] (20 μM inhibitor, 50 mM bromide) came out at 90%. Also, on Human peroxidasin (PXDN) [5] (20 μM inhibitor, then Amplex assay), the “Irreversible Inhibition” value is given as “no”. For the same compound, at Human peroxidasin (PXDN) [5] (immobilized PXDN, 20 μM inhibitor without or with 10 μM hydrogen peroxide), the “inhibition of PXDN remaining after washing” value is “no statistically significant difference”. Also, the “Mechanism or Reaction Steady and Pre-Steady State Spectrophotometry” value on PXDN Compound I is “forms Compound III”. Further, in test [2], the “IC50 Cells” value is listed as “ineffective”.

Regarding `Cn1cc[nH]c1=S` [methimazole], the “inhibition of collagen IV cross-link formation by PXDN” value in test [6] is “potently inhibits”.

Regarding “(E)-2-methoxy-4-((2-phtalazine-1yl)hydrazono)methyl)phenol [Hydralazine-vanillin]”, the “Mechanism or Reaction Steady and Pre-Steady State Spectrophotometry” value at PXDN Compound I is recorded as “good peroxidation substrates”.

Turning to `NNC(=O)CNc1ccc(Cl)cc1` [Cl-PAAH, (2-[(4-chlorophenyl)amino]-acetohydrazide)], the pIC50 is 4.90 in test [1] and approximately 3.76 in test [2] (168 h).

Compound `CSc1ccc2c(c1)N(CCC1CCCCN1C)c1ccccc1S2` (stereo not shown) [Thioridazine] yielded an inhibition at 24 µM at Human peroxidasin (PXDN) [7] (24 μM inhibitor, 50 μM DG, 200 μM hydrogen peroxide, pH 7.4) of 97 to 99%. The pIC50 on Human peroxidasin (PXDN) [7] (inhibitor 0–48 μM, read-out: IC50 Halogenation Dansylglycin) is 5.74. In addition, the “enhancement of Amplex oxidation” value on Human peroxidasin (PXDN) [3] (20 μM compound, without bromide) is “about 50%”. For the same compound, the “inhibition of Amplex oxidation in the presence of bromide” value at Human peroxidasin (PXDN) [4] (20 μM inhibitor, 50 mM bromide) is “neither activation of Amplex oxidation, nor much inhibition”. Besides, the “Mechanism or Reaction Steady and Pre-Steady State Spectrophotometry” value at PXDN Compound I is listed as “Good substrate for CI, not a substrate for CII”.

For `COc1ccc2c(C)nc(N=C(N)N)nc2c1` [Quinazoline, 2-(7-methoxy-4-methylquinazoline-2-yl)guanidine], at Human peroxidasin (PXDN) [3], the pIC50 is 6.70. In addition, the inhibition at 20 µM at Human peroxidasin (PXDN) [4] (20 μM inhibitor, 50 mM bromide) fell in the range of 25 to 70%. The “Mechanism or Reaction Steady and Pre-Steady State Spectrophotometry” value on PXDN Compound I was “Good substrate for CI and CII”.
